From PubChem BioAssay AID1963975 (Molecular Pharmacology Branch, DTP, NCI, 2024)

Test system: 624824-186-R-J2-PDC multicell spheroids, viability
Test: Anticancer human tumor 624824-186-R-J2-PDC patient-derived colon adenocarcinoma cell line growth inhibition [PI3K]
Conditions: for IC50: curve of first compound; for viability, T/C: stronger effect = lower value
How it was run: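 Agents were dosed from a top concentration near clinical Cmax (otherwise 10 microM) in half-log decrements, alone or combined with PI3K inhibitors. The spheroids contain tumor cells plus endothelial (HUVEC) and MSC stroma; viability is measured.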

[1] = second compound 0.00316 µM, first compound 0.0316 µM
[2] = second compound 0.00316 µM, first compound 0.1 µM
[3] = second compound 0.00316 µM, first compound 0.316 µM
[4] = second compound 0.00316 µM, first compound 1 µM
[5] = second compound 0.00316 µM, first compound 3.16 µM
[6] = second compound 0.00316 µM, first compound 10 µM
[7] = second compound 0.01 µM, first compound 0.0316 µM
[8] = second compound 0.01 µM, first compound 0.1 µM
[9] = second compound 0.01 µM, first compound 0.316 µM
[10] = second compound 0.01 µM, first compound 1 µM
[11] = second compound 0.01 µM, first compound 3.16 µM
[12] = second compound 0.01 µM, first compound 10 µM
[13] = second compound 0.0316 µM, first compound 0.0316 µM
[14] = second compound 0.0316 µM, first compound 0.1 µM
[15] = second compound 0.0316 µM, first compound 0.316 µM
[16] = second compound 0.0316 µM, first compound 1 µM
[17] = second compound 0.0316 µM, first compound 3.16 µM
[18] = second compound 0.0316 µM, first compound 10 µM
[19] = second compound 0.1 µM, first compound 0.0316 µM
[20] = second compound 0.1 µM, first compound 0.1 µM
[21] = second compound 0.1 µM, first compound 0.316 µM
[22] = second compound 0.1 µM, first compound 1 µM
[23] = second compound 0.1 µM, first compound 3.16 µM
[24] = second compound 0.1 µM, first compound 10 µM
[25] = second compound 0.316 µM, first compound 0.0316 µM
[26] = second compound 0.316 µM, first compound 0.1 µM
[27] = second compound 0.316 µM, first compound 0.316 µM
[28] = second compound 0.316 µM, first compound 1 µM
[29] = second compound 0.316 µM, first compound 3.16 µM
[30] = second compound 0.316 µM, first compound 10 µM
[31] = second compound 1 µM, first compound 0.0316 µM
[32] = second compound 1 µM, first compound 0.1 µM
[33] = second compound 1 µM, first compound 0.316 µM
[34] = second compound 1 µM, first compound 1 µM
[35] = second compound 1 µM, first compound 3.16 µM
[36] = second compound 1 µM, first compound 10 µM
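Further: spheroids exposed to agents for 7 days before viability read.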
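Wherever viability, T/C is given: 100% = DMSO vehicle treated spheroids.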

Structure (SMILES): C#Cc1c(F)ccc2cc(O)cc(-c3ncc4c(N5CC6CCC(C5)N6)nc(OCC56CCCN5CC(F)C6)nc4c3F)c12 (centres undefined) + COc1c(OCCCN2CCOCC2)ccc2c3n(c(=NC(=O)c4cnc(N)nc4)nc12)CCN3
- IC50 (second compound 0.00316 µM): > 10 µM
- IC50 (second compound 0.01 µM): > 10 µM
- IC50 (second compound 0.0316 µM): > 10 µM
- IC50 (second compound 0.1 µM): > 10 µM
- IC50 (second compound 0.316 µM): > 10 µM
- IC50 (second compound 1 µM): 6.78 µM
- viability, T/C [1]: 89.2%
- viability, T/C [2]: 101%
- viability, T/C [3]: 73.6%
- viability, T/C [4]: 91.6%
- viability, T/C [5]: 87.9%
- viability, T/C [6]: 80.8%
- viability, T/C [7]: 92.8%
- viability, T/C [8]: 90.2%
- viability, T/C [9]: 89.8%
- viability, T/C [10]: 78.5%
- viability, T/C [11]: 89.9%
- viability, T/C [12]: 95.4%
- viability, T/C [13]: 94.3%
- viability, T/C [14]: 77.2%
- viability, T/C [15]: 92.6%
- viability, T/C [16]: 77.5%
- viability, T/C [17]: 80.6%
- viability, T/C [18]: 81.5%
- viability, T/C [19]: 78.8%
- viability, T/C [20]: 76.9%
- viability, T/C [21]: 66.2%
- viability, T/C [22]: 68.3%
- viability, T/C [23]: 72.8%
- viability, T/C [24]: 72.2%
- viability, T/C [25]: 72.6%
- viability, T/C [26]: 59.4%
- viability, T/C [27]: 65%
- viability, T/C [28]: 60.4%
- viability, T/C [29]: 58.5%
- viability, T/C [30]: 56.4%
- viability, T/C [31]: 60.1%
- viability, T/C [32]: 59.9%
- viability, T/C [33]: 52.9%
- viability, T/C [34]: 56%
- viability, T/C [35]: 50.8%
- viability, T/C [36]: 49.3%

Structure (SMILES): CC(Cn1ccc(-c2ccc(C#N)c(Cl)c2)n1)NC(=O)c1cc(C(C)O)[nH]n1 (centres undefined) + COc1c(OCCCN2CCOCC2)ccc2c3n(c(=NC(=O)c4cnc(N)nc4)nc12)CCN3
- IC50 (second compound 0.00316 µM): > 10 µM
- IC50 (second compound 0.01 µM): > 10 µM
- IC50 (second compound 0.0316 µM): > 10 µM
- IC50 (second compound 0.1 µM): > 10 µM
- IC50 (second compound 0.316 µM): > 10 µM
- IC50 (second compound 1 µM): > 10 µM
- viability, T/C [1]: 86.3%
- viability, T/C [2]: 79%
- viability, T/C [3]: 106%
- viability, T/C [4]: 98.5%
- viability, T/C [5]: 71.5%
- viability, T/C [6]: 117%
- viability, T/C [7]: 87.1%
- viability, T/C [8]: 89.7%
- viability, T/C [9]: 98%
- viability, T/C [10]: 84.8%
- viability, T/C [11]: 99.6%
- viability, T/C [12]: 114%
- viability, T/C [13]: 102%
- viability, T/C [14]: 88.1%
- viability, T/C [15]: 90.7%
- viability, T/C [16]: 84.5%
- viability, T/C [17]: 92%
- viability, T/C [18]: 97.2%
- viability, T/C [19]: 76.9%
- viability, T/C [20]: 73.2%
- viability, T/C [21]: 71.6%
- viability, T/C [22]: 76.6%
- viability, T/C [23]: 85.1%
- viability, T/C [24]: 80%
- viability, T/C [25]: 61.4%
- viability, T/C [26]: 70.2%
- viability, T/C [27]: 55.3%
- viability, T/C [28]: 62.2%
- viability, T/C [29]: 68.1%
- viability, T/C [30]: 63.8%
- viability, T/C [31]: 63%
- viability, T/C [32]: 58.6%
- viability, T/C [33]: 62.7%
- viability, T/C [34]: 63.6%
- viability, T/C [35]: 63.4%
- viability, T/C [36]: 59%
